Converted amounts (≈) assume the structure as drawn.
Columns and labels:
[1] = Caco-2 permeability (bi-directional; pH 7.4/pH 7.4); assay type: in vitro ADME; details: human
Method: Caco-2 cells are used as an in vitro model of the human intestinal epithelium and permit assessment of the intestinal permeability of potential drugs. Test compound is added to either the apical or basolateral side of a confluent monolayer of Caco-2 cells and permeability is measured by monitoring the appearance of the test compound on the opposite side of the membrane using LC-MS/MS. Apparent permeability (Papp) coefficients, efflux ratio for the test compound and recovery values were determined.
To measure the permeability of test compound in the apical to basolateral (A-B) and basolateral to apical (B-A) direction across Caco-2 cells.
Caco-2 cells obtained from the ATCC are used between passage numbers 40-60. Cells are seeded on to Millipore Multiscreen Caco-2 plates at 1×10^5 cells/cm^2. They are cultured for 20 days in DMEM and media is changed every two or three days. On day 20 the permeability study is performed.
On day 20, the monolayers are prepared by rinsing both basolateral and apical surfaces twice with HBSS at 37° C. Cells are then incubated with HBSS in both apical and basolateral compartments for 40 min to stabilize physiological parameters. HBSS is then removed from the apical compartment and replaced with test compound dosing solutions. […] The fluorescent integrity marker lucifer yellow is also included in the dosing solution. Analytical standards are made from dosing solutions. The apical compartment inserts are then placed into ‘companion’ plates containing fresh HBSS. For basolateral to apical (B-A) permeability determination the experiment is initiated by replacing buffer in the inserts then placing them in companion plates containing dosing solutions. At 120 minutes the companion plate is removed and apical and basolateral samples diluted for analysis by LC-MS/MS. Test compound permeability was assessed in duplicate. On each plate, compounds of known permeability characteristics were run as controls.
Test and control compounds were quantified by LC-MS/MS cassette analysis using a 5-point calibration with appropriate dilution of the samples. Cyprotex generic analytical conditions were used. The starting concentration (C0) and experimental recovery were calculated from both apical and basolateral compartment concentrations.
The integrity of the monolayers throughout the experiment was checked by monitoring lucifer yellow permeation using fluorimetric analysis. Lucifer yellow permeation is low if monolayers have not been damaged. […] If lucifer yellow Papp values are above QC limits in both replicate wells for a test compound, the compound was re-tested.
Data Analysis: The permeability coefficient for each compound (Papp) is calculated from the following equation: […]
wherein dQ/dt is the rate of permeation of the drug across the cells, C0 is the donor compartment concentration at time zero and A is the area of the cell monolayer. C0 is obtained from analysis of donor and receiver compartments at the end of the incubation period. It is assumed that all of the test compound measured after 120 minutes incubation was initially present in the donor compartment at 0 minutes. An efflux ratio (ER) is derived as follows:
Talinolol (a known P-gp substrate) is also included as a control compound to assess whether functional P-gp is present in the Caco-2 cell monolayer.

ABL = ABL (Homo sapiens, UniProt P00519); assay: Off-chip mobility-shift kinase assay (Caliper LABCHIP), ABL
Chain of ABL (P00519 whole entry): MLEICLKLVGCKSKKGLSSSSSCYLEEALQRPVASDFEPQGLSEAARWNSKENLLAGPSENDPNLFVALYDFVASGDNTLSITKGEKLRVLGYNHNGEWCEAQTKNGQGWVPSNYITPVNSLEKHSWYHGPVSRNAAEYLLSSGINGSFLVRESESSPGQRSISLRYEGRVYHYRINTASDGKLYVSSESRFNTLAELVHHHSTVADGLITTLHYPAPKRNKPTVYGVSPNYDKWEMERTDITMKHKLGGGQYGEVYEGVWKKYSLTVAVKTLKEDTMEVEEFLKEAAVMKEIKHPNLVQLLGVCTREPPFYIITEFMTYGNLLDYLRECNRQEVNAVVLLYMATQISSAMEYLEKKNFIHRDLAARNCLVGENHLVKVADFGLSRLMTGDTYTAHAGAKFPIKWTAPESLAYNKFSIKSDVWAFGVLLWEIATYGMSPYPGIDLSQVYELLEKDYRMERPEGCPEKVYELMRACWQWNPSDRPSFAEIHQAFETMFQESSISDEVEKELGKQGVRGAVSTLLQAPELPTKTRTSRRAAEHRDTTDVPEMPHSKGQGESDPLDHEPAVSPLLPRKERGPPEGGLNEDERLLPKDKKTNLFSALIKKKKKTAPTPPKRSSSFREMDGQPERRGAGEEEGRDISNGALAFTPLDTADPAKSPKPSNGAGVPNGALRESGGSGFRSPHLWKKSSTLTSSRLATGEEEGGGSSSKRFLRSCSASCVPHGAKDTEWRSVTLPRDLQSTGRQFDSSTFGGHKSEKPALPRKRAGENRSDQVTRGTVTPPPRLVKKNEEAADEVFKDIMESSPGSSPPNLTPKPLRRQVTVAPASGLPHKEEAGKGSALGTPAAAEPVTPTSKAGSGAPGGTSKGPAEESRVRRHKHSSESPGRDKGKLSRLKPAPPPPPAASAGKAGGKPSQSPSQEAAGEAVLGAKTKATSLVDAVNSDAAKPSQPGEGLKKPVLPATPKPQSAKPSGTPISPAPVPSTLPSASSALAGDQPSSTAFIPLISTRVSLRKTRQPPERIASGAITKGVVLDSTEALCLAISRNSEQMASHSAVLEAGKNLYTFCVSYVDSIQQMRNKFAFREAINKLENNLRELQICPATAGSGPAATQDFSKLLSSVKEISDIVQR

PDGFRβ = PDGFRβ (Homo sapiens, UniProt P09619); assay: Off-chip mobility-shift kinase assay (Caliper LABCHIP), PDGFR
Chain of PDGFRβ (P09619 33-1106): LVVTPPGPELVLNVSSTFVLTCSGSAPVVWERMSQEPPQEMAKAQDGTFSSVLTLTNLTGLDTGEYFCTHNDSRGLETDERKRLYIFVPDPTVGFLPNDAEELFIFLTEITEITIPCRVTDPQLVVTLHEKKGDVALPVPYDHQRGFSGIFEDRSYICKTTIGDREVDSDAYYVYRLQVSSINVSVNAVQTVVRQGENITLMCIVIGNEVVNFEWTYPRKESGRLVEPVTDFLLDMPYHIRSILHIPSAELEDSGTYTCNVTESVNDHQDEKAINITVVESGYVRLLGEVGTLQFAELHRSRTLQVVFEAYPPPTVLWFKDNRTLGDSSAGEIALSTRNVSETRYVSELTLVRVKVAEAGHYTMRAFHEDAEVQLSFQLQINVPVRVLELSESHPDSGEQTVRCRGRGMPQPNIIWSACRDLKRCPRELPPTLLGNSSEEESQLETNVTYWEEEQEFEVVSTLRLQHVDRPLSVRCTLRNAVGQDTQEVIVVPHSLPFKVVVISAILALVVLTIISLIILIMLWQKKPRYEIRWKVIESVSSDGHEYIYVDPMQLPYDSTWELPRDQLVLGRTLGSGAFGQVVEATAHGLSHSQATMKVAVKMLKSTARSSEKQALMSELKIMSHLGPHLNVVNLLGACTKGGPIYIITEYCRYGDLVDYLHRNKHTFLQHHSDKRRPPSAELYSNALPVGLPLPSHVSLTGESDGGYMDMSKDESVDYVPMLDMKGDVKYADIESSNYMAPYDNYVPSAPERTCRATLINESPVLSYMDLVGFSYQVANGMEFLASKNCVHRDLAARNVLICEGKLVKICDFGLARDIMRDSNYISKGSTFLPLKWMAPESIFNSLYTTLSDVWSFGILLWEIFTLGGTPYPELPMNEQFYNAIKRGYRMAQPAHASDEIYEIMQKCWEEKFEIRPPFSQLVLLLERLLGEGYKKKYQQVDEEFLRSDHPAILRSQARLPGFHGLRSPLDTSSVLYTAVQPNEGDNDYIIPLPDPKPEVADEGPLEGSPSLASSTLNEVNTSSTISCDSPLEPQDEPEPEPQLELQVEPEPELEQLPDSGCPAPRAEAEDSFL

Thermodynamic solubility = assay type: physicochemical; details: aqueous buffer, thermodynamic from solid; phosphate buffered saline, pH 7.4; ambient temperature overnight
Method: Test compound (2.5 mg of solid; n=1) is weighed in a clear glass vial and buffer (0.5 mL) is added (phosphate buffered saline, pH 7.4). The solution is agitated at ambient temperature overnight using a vial roller system. […] Duplicate aliquots (50 μL) are sampled from the filtrate and diluted with one volume of 0.1 N hydrochloric acid and methanol (1:1 v/v) before analysis by HPLC-UV. […] The concentration of test compound in the filtrate is quantified relative to the concentration standard.
Analysis is performed using a gradient HPLC-UV system with a total cycle time of six minutes.

cKIT = cKIT (Homo sapiens, UniProt P10721); assay: Off-chip mobility-shift kinase assay (Caliper LABCHIP), C-kit
Chain of cKIT (P10721 26-976): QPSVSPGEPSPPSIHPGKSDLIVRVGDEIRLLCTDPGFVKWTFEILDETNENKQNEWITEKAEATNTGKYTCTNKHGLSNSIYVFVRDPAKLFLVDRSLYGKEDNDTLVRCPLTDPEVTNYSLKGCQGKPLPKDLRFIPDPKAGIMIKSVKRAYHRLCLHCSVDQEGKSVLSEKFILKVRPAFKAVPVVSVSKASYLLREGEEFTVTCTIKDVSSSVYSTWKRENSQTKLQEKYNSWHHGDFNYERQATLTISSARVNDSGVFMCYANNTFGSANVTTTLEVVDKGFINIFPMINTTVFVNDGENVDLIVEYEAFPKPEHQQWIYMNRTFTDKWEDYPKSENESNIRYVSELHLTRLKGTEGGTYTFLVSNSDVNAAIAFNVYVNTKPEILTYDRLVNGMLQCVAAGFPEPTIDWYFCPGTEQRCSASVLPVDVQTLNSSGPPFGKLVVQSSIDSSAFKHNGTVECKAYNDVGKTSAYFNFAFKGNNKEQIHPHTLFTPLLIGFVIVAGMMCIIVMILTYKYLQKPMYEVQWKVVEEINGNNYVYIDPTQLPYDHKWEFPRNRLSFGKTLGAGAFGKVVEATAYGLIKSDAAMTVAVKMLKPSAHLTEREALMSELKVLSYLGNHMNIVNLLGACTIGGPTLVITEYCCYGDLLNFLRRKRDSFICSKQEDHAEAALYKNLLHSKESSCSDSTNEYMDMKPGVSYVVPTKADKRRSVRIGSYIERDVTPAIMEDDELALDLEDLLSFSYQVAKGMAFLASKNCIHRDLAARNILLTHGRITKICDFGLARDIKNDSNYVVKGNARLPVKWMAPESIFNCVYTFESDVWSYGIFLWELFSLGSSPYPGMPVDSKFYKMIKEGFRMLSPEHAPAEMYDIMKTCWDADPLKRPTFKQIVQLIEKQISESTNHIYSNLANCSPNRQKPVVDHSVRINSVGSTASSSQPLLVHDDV

## COCCOCCOCCOCCOCCOCCOCCOCCOCCN1CCN(Cc2ccc(C(=O)Nc3ccc(C)c(Nc4nccc(-c5cccnc5)n4)c3)cc2)CC1 [mPEG9-N′-Imatinib]
[1]; Caco-2, pH 7.4, read-out: Permeability (cm^2/s × 10^6)
  Papp A→B at 120 min, 10 μM: 0.05 ± 0.02 ×10⁻⁶ cm/s
[1]; Caco-2, ratio of B-A and A-B permeabilities, 10 μM, 120 minutes
  efflux ratio at 120 min, 10 μM: 359
ABL
  IC50: 3800 nM
ABL; concentration 1.0E−06, imatinib-corresponding compounds
  ABL AVG % Activity at 1.0E−06: 69%
ABL; concentration 1.0E−07, imatinib-corresponding compounds
  ABL AVG % Activity at 1.0E−07: 84%
ABL; concentration 1.0E−08, imatinib-corresponding compounds
  ABL AVG % Activity at 1.0E−08: 93%
ABL; concentration 1.0E−09, imatinib-corresponding compounds
  ABL AVG % Activity at 1.0E−09: 97%
ABL; concentration 1.0E−10, imatinib-corresponding compounds
  ABL AVG % Activity at 1.0E−10: 97%
ABL; concentration 3.0E−06, imatinib-corresponding compounds
  ABL AVG % Activity at 3.0E−06: 49%
ABL; concentration 3.0E−07, imatinib-corresponding compounds
  ABL AVG % Activity at 3.0E−07: 79%
ABL; concentration 3.0E−08, imatinib-corresponding compounds
  ABL AVG % Activity at 3.0E−08: 89%
ABL; concentration 3.0E−09, imatinib-corresponding compounds
  ABL AVG % Activity at 3.0E−09: 96%
ABL; concentration 3.0E−10, imatinib-corresponding compounds
  ABL AVG % Activity at 3.0E−10: 97%
PDGFRβ
  IC50: 340 nM
PDGFRβ; concentration 1.0E−06
  PDGFR AVG % Activity at 1.0E−06: 13%
PDGFRβ; concentration 1.0E−07
  PDGFR AVG % Activity at 1.0E−07: 74%
PDGFRβ; concentration 1.0E−08
  PDGFR AVG % Activity at 1.0E−08: 95%
PDGFRβ; concentration 1.0E−09
  PDGFR AVG % Activity at 1.0E−09: 99%
PDGFRβ; concentration 1.0E−10
  PDGFR AVG % Activity at 1.0E−10: 92%
PDGFRβ; concentration 3.0E−06
  PDGFR AVG % Activity at 3.0E−06: 0%
PDGFRβ; concentration 3.0E−07
  PDGFR AVG % Activity at 3.0E−07: 48%
PDGFRβ; concentration 3.0E−08
  PDGFR AVG % Activity at 3.0E−08: 86%
PDGFRβ; concentration 3.0E−09
  PDGFR AVG % Activity at 3.0E−09: 100%
PDGFRβ; concentration 3.0E−10
  PDGFR AVG % Activity at 3.0E−10: 95%
Thermodynamic solubility
  solubility: 2500 µg/mL (≈ 2810 µM)
cKIT
  IC50: 550 nM
cKIT; concentration 1.0E−05
  C-kit AVG % Activity at 1.0E−05: 2%
cKIT; concentration 1.0E−06
  C-kit AVG % Activity at 1.0E−06: 35%
cKIT; concentration 1.0E−07
  C-kit AVG % Activity at 1.0E−07: 82%
cKIT; concentration 1.0E−08
  C-kit AVG % Activity at 1.0E−08: 91%
cKIT; concentration 3.0E−05
  C-kit AVG % Activity at 3.0E−05: 0%
cKIT; concentration 3.0E−06
  C-kit AVG % Activity at 3.0E−06: 12%
cKIT; concentration 3.0E−07
  C-kit AVG % Activity at 3.0E−07: 64%
cKIT; concentration 3.0E−08
  C-kit AVG % Activity at 3.0E−08: 92%
cKIT; concentration 3.0E−09
  C-kit AVG % Activity at 3.0E−09: 95%

— patent US20120094998A1, “Oligomer-Protein Tyrosine Kinase Inhibitor Conjugates” (Nektar Therapeutics, priority 2009, published 2012)
